{"source": "patent US20090012018A1", "about": "“Inhibition of pancretic cancer cell growth” (priority 2004, published 2009)", "key": {"CFPAC-1": {"test_system": "CFPAC-1", "assay": "Sensitivity of pancreatic adenocarcinoma cells to drug treatment (cell proliferation, apoptosis)", "assay_type": "cell-based, human", "conditions": "CFPAC-1 (CFPAC); vs untreated controls; FIG. 3B, 5", "experimental": "(§1) The culture media was changed every 48 hrs.\n(§2) Cells were pulsed with 10 μM BrdU for two hours and then harvested and fixed. BrdU incorporation was detected with a fluorescein isothiocyanate conjugated anti-BrdU antibody (BD Biosciences) and total DNA was stained with 7-AAD (BD Biosciences). FACS analysis was performed according to the BD Biosciences BrdU flow kit manual. Cells in S-phase were defined as the BrdU-positive cell population with a DNA content between 2N and 4N. According to the manual, apoptotic cells were defined as a subpopulation of G0/G1 cells with DNA content lower than the diploid amount (<2N)."}, "L3.6pl": {"test_system": "L3.6pl", "assay": "Sensitivity of pancreatic adenocarcinoma cells to drug treatment (cell proliferation)", "assay_type": "cell-based, human", "conditions": "reduction in cell proliferation", "experimental": "as §1, §2"}, "Panc2.03": {"test_system": "Panc2.03", "assay": "Sensitivity of pancreatic adenocarcinoma cells to drug treatment (cell proliferation)", "assay_type": "cell-based, human", "conditions": "reduction in cell proliferation", "experimental": "as §1, §2"}, "Panc3.27": {"test_system": "Panc3.27", "assay": "Sensitivity of pancreatic adenocarcinoma cells to drug treatment (cell proliferation)", "assay_type": "cell-based, human", "conditions": "reduction in cell proliferation", "experimental": "as §1, §2"}, "Panc6.03": {"test_system": "Panc6.03", "assay": "Sensitivity of pancreatic adenocarcinoma cells to drug treatment (cell proliferation)", "assay_type": "cell-based, human", "conditions": "reduction in cell proliferation", "experimental": "as §1, §2"}, "[1]": {"test_system": "Wnt signaling (Top-Flash reporter)", "assay": "Fop/Top-Flash luciferase reporter assay", "assay_type": "cell-based, human", "conditions": "CFPAC-1, BxPC3, L3.6sl, Panc4.21, 24 hrs after transfection, sulindac 250 μM, sulindac sulfone 150 μM, cyclopamine 10 μM, or co-transfection", "experimental": "The cell lines were plated the day prior to transfection at a density of 8×10^4 cells/well in a 24-well plate. The luciferase reporter constructs used included: Top-Flash and Fop-Flash containing multimerized Tcf-Lef binding sites or nonfunctional sites, respectively; TK-Luc (Promega); and GliBS containing 8×Gli binding sites upstream of the TK minimal promoter (Sasaki et al., Development, 124:1313-1322, 1997). In different experiments, the reporter constructs were co-transfected with an expression vector containing a dominant-negative form of Lef1 or the endogenous Wnt inhibitor Icat. The dominant negative Lef1 (gift from S. Pleasure) was generated by cloning the 63 amino acid N-terminal deleted form of Lef1 into the pEF5 plasmid. This construct also contains an IRES-EGFP cassette. The cDNA coding for the Icat protein was cloned into pIRES2-EGFP (BD Biosciences Clontech). Transfections were performed using the Effectene transfection reagent […] according to the user's manual. A Renilla luciferase plasmid (Promega) was included to control for transfection efficiency. Transfected cells were cultured in medium containing serum. […] Cells were harvested 24 hrs after transfection, and luciferase activity was assayed using the Dual Luciferase kit (Promega), according to the user's manual.\nFor each Fop-luciferase or Top-luciferase experiment, a renilla luciferase construct was included. For each experimental condition (drug treatment, co-transfection or siRNA), triplicate Top- and Fop-luciferase samples were analyzed. To equilibrate the total vector-DNA (or siRNA) amount in all samples, equivalent amounts of an empty expression vector or unrelated siRNAs were transfected into control samples. The following equations were used to obtain the normalized luciferase values and the relative (fold) activation. The firefly luciferase (Fop and Top) values were divided by the renilla luciferase values to obtain the normalized luciferase values. The normalized Top values for each condition were divided by the Fop values of the same condition (e.g., untreated Top/untreated Fop; drug-treated Top/drug-treated Fop). […] To minimize the number of bars in each figure, only representative average Fop values are included in the graphs."}, "L3.6sl tumors": {"test_system": "L3.6sl tumors", "assay": "Subcutaneous tumor treatment in nude mice", "assay_type": "in vivo, CD-1 nude mice", "experimental": "A total of 0.1 ml Hanks' balanced salt solution and matrigel (1:1) containing 2×10^6 cells was injected subcutaneously into CD-1 nude mice (Charles River Laboratories). Tumors were grown for 4 days to a minimum volume of 125 mm^3. Treatment was initiated simultaneously for all subjects. Mice were injected with vector alone (peanut oil: PBS 7:3 v/v) or with a sulindac solution (3 mg/mouse/day) daily for 5 days. Sulindac sulfone was administered orally (1.5 mg/mouse/day). At the end of the treatment period, tumors were excised from mice, weighed and photographed.\nIndividual or combined treatment was initiated after tumors were palpable."}}, "note": "“Also recorded” adds a separate entry of the source.", "data": [{"molecule": "CC1=C(CC(=O)O)c2cc(F)ccc2/C1=C\\c1ccc([S+](C)[O-])cc1", "note": "(stereo not drawn) [sulindac]", "values": [{"measurement": "cell growth (proliferation, apoptosis)", "setting": "CFPAC-1", "result": "not affected; also recorded: only marginally affected"}, {"measurement": "Sulindac Sensitivity", "setting": "L3.6pl", "result": "Positive"}, {"measurement": "Sulindac Sensitivity", "setting": "Panc2.03", "result": "Positive"}, {"measurement": "Sulindac Sensitivity", "setting": "Panc3.27", "result": "Positive"}, {"measurement": "Sulindac Sensitivity", "setting": "Panc6.03", "result": "Positive"}, {"measurement": "Top-Flash reporter activity (Wnt signaling)", "setting": "[1]", "result": "inhibit Wnt activity; also recorded: inhibited; also recorded: showed an inhibitory effect"}, {"measurement": "Top-Flash reporter activity (Wnt signaling)", "setting": "[1]; listed as Sulindac", "result": "suppressed Top-Flash reporter activation in all cell lines tested"}, {"measurement": "reduction in tumor volume compared to untreated samples", "setting": "L3.6sl tumors; sulindac 3 mg/mouse/day injected daily for 5 days", "result": 80, "unit": "%"}, {"measurement": "tumor growth", "setting": "L3.6sl tumors; treated for five days vs untreated controls, sulindac 3 mg/mouse/day injected, sulindac sulfone 1.5 mg/mouse/day orally", "result": "strongly reduced"}]}]}
